Source: US12103946B2, “Steroid compounds as Treg modulators and uses thereof” (New York University, priority 2018, dated 2024)
“Also recorded” adds a separate entry of the source.

Assays:
[1] = test system: naïve CD4+ T cells (Treg differentiation, FoxP3); experiment: In vitro Treg differentiation, FoxP3 staining by flow cytometry; type: cell-based, mouse
Excerpt: To determine if bile acids influence T cell functions, the present inventors performed a small-scale screening assay with a small molecule library comprising secondary bile acids with in vitro Treg differentiation as a read-out. Naïve CD4^+ T lymphocytes were sorted from wild-type B6 mice and cultured in the presence of a TCR stimulus, interleukin 2 (IL-2), and different amounts of TGFβ (optimized for Treg differentiation). Treg differentiation was quantified at the single cell level by staining with an antibody specific for FoxP3, followed by flow cytometry analysis. Retinoic acid, a known enhancer of Treg differentiation, was used as a positive control.
(§1) Our screen included both primary bile acids, synthesized by the host, and secondary bile acids, produced by bacterial modification of primary bile acids (FIG. 5). Naïve CD4^+ T cells were isolated from wild-type C57BL/6J (B6) mice and cultured with bile acids under Th17 differentiation conditions and, as a counter-screen, Treg differentiation conditions (FIG. 6).
(§2) In Vitro T Cell Culture. Naïve CD4^+ (CD62L^+ CD44^− CD25^− CD4^+) T cells were isolated from the spleens and the lymph nodes of mice of designated genotypes with FACS sorting. For certain experiments, naïve CD4^+ T cells were enriched using naïve CD4^+ T cell isolation kits (Miltenyi). Naïve CD4^+ T cells (40,000 cells) were cultured in a 96-well plate pre-coated with hamster IgG (MP Biomedicals) in T cell medium (RPMI, 10% fetal bovine serum, 25 mM glutamine, 55 μM 2-mercaptoethanol, 100 U/mL penicillin, […] streptomycin) supplemented with 0.25 μg/mL anti-CD3 (clone 145-2C11) and 1 μg/mL anti-CD28 (clone 37.51). For Th0 culture, T cells were cultured with the addition of 100 U/mL of IL-2 (PEPROTECH). For Th1 cell differentiation, T cells were cultured with the addition of 100 U/mL of IL-2, 10 μg/mL of anti-IL-4 (clone 11B11) and 10 ng/mL of IL-12 (PEPROTECH). For Th2 cell differentiation, T cells were cultured with the addition of 10 μg/mL of anti-IFNγ (clone XMG1.2) and 10 ng/mL of IL-4 (R&D Systems). For Th17 cell differentiation, T cells were cultured with the addition of 10 ng/mL of IL-6 (eBioscience) and 0.5 ng/mL of TGF-β (PEPROTECH). For Treg culture, T cells were cultured with the addition of 100 U/mL of IL-2 and various concentrations of TGF-β. […] Bile acids, retinoic acid (Sigma) or mitoQ (Focus Biomolecules), or mitoPQ (Sigma) were added either at 0 or 16 h time points. Compounds with low water solubility were sonicated before adding to the culture. Cells were harvested and assayed by flow cytometry on day 3. For ROS and mitochondrial membrane potential detection, cells cultured for 2 days were incubated with 5 μM of mitoSOX (ThermoFisher), 10 μM of DCFDA (Sigma) or 2 μM of JC-1 (ThermoFisher) for 30 min and assayed with flow cytometry.
(§3) Flow Cytometry. Cells harvested from in vitro culture or in vivo mice experiments were stimulated with 50 ng/mL PMA (Phorbol 12-myristate 13-acetate, Sigma) and 1 μM ionomycin (Sigma) in the presence of GolgiPlug (BD) for 4 h to determine cytokine expression. After stimulation, cells were stained with cell surface marker antibodies and LIVE/DEAD Fixable dye, Aqua, to exclude dead cells, fixed and permeabilized with a FoxP3/Transcription factor staining kit (eBioscience), followed by staining with cytokine- and/or transcription factor-specific antibodies. All flow cytometry analyses were performed on an LSR II flow cytometer (BD) and data were analyzed with FlowJo software (TreeStar).

[2] = test system: naïve CD4+ T cells (Th17 differentiation, IL-17a); experiment: In vitro Th17 differentiation, IL-17a staining by flow cytometry; type: cell-based, mouse
Excerpt: as §1, §2, §3

[3] = test system: naïve CD4+ T cells (Th1 or Th2 cells); experiment: In vitro Th1 and Th2 differentiation (IFN-γ, IL-4, T-bet, GATA3); type: cell-based, mouse; details: 20 μM, day 5
Protocol: In Vitro T Cell Culture. Naïve CD4^+ (CD62L^+ CD44^− CD25^− CD4^+) T cells were isolated from the spleens and the lymph nodes of mice of designated genotypes with FACS sorting. For certain experiments, naïve CD4^+ T cells were enriched using naïve CD4^+ T cell isolation kits (Miltenyi). Naïve CD4^+ T cells (40,000 cells) were cultured in a 96-well plate pre-coated with hamster IgG (MP Biomedicals) in T cell medium (RPMI, 10% fetal bovine serum, 25 mM glutamine, 55 μM 2-mercaptoethanol, 100 U/mL penicillin, […] streptomycin) supplemented with 0.25 μg/mL anti-CD3 (clone 145-2C11) and 1 μg/mL anti-CD28 (clone 37.51). For Th0 culture, T cells were cultured with the addition of 100 U/mL of IL-2 (PEPROTECH). For Th1 cell differentiation, T cells were cultured with the addition of 100 U/mL of IL-2, 10 μg/mL of anti-IL-4 (clone 11B11) and 10 ng/mL of IL-12 (PEPROTECH). For Th2 cell differentiation, T cells were cultured with the addition of 10 μg/mL of anti-IFNγ (clone XMG1.2) and 10 ng/mL of IL-4 (R&D Systems). For Th17 cell differentiation, T cells were cultured with the addition of 10 ng/mL of IL-6 (eBioscience) and 0.5 ng/mL of TGF-β (PEPROTECH). […]
Flow Cytometry. […] All flow cytometry analyses were performed on an LSR II flow cytometer (BD) and data were analyzed with FlowJo software (TreeStar).

[4] = test system: ileal lamina propria Th17 and Treg cells; experiment: SFB-dependent Th17 cells in mice fed bile acid diet; type: in vivo, mouse; details: 0.3% diet
Protocol: (§4) Data are shown as the mean±standard deviation by unpaired t-test with 2-tailed p-value.
(§5) Cells were then analyzed by flow cytometry.

[5] = test system: lamina propria CD4+ T cells (Th17, Treg); experiment: Anti-CD3 injection gut inflammation model, bile acid diet; type: in vivo, mouse; details: 1% diet
Protocol: as §4, §5

[6] = Measurement of lipophilicity (octanol/ammonium bicarbonate partitioning, LC-MS); details: n-octanol / 50 mM ammonium bicarbonate, pH 8
Protocol: Measurement of lipophilicity. Partitioning Method: 2 μL of 10 mM stock solutions of each target compound was added to a 1 mL each of 50 mM ammonium bicarbonate (pH=8), and 1 mL of n-octanol in an Eppendorf tube. The resulting two-phase mixture was vortexed and then shaken for 18 h at 20° C. The two phases were then carefully separated into the aqueous sample (bottom layer), and organic sample (top-layer) and placed separately in autosampler vials and analyzed by LC-MS/MS. LC-MS Method: a Thermo q-Exactive Plus LC-MS equipped with an Ultimate 3000 HPLC was operated in negative ion mode after optimized to detect the [M− H]^− of the bile acids. […] A Dikma Inspire C8 column (3 μm particle size, 100 mm length, 4.6 mm ID) was used for analysis. Each injection was 5 μL, and a constant flow rate of 0.400 L/min was used. The gradient started at 0% B and was held constant for 2 minutes. Then the mobile phase composition was linearly changed to 100% B over 8 minutes and held at 100% for the following 5 minutes. The mobile phase composition was changed to 0% B over the following 0.1 minutes and the system was allowed to equilibrate to starting conditions over 1.9 minutes. Standards of all targets were used to establish retention times. Better than 2 ppm mass accuracy was obtained on all measurements. The LC-MS analysis was done in triplicate, while the partitioning was done once for each target's [M− H]^− ion. Calculation of log D: the total response of target in octanol was divided by the total response in the aqueous phase to get a partitioning coefficient. Then, log base 10 was taken and reported.

logD at 18 h [6]: 2.4
SMILES: C[C@H](CCC(=O)O)[C@H]1CC[C@H]2[C@@H]3CC[C@@H]4CC(=O)CC[C@]4(C)[C@H]3CC[C@]12C [3-oxoLCA, 3-oxolithocholic acid]
effect on Treg differentiation induced by isoalloLCA ([1]; 3-oxoLCA 20 μM + isoalloLCA 20 μM): further enhanced Treg differentiation induced by isoalloLCA in vitro | Treg differentiation (FoxP3 expression) ([1]; bile acids 20 μM, 3 days, anti-CD3/28, IL-2): did not affect Tregs | suppression of Th17 cells in VDR or FXR knockout cells ([2]; 20 μM): VDR and FXR also failed to contribute to the suppressive activities | Th17 cell differentiation (IL-17a) ([2]; bile acids 20 μM, 3 days, IL-6 and TGF-β): dose-dependent effects; also recorded: inhibited Th17 differentiation | T cell differentiation into Th1 or Th2 cells [3]: neither compound affected T cell differentiation into Th1 or Th2 cells | percentage of ileal Th17 cells ([4]; Jax-B6 mice gavaged with SFB, one week): significantly reduced the percentage of ileal Th17 cells | Th17 cell percentages ([4]; Tac-B6 mice with pre-existing SFB, 7 days): reduced levels of Th17 cell percentages | Treg percentages ([4]; Tac-B6 mice, 7 days): did not affect Treg percentages | Th17 cell levels after anti-CD3 injection [5]: reduced Th17 cell levels
